Results reported in patent US20250281462A1, “THERAPEUTICALLY EFFECTIVE ORAL ADMINISTRATION OF A 2 ARYLBENZIMIDAZOLE” (Tranquis Therapeutics, Inc., priority 2021, published 2025).
“And” between values parts separate entries of the source, which are not always exact repeats. Equal entries are not always repeated. “Also recorded” adds a separate entry of the source.

Experiments:
PGC-1α = PGC-1α protein expression in BV2 cells (Western blot); format: cell-based, murine; details: 20 μM, 24 hours
Procedure: Frozen BV2 murine microglia cells were thawed and propagated in complete media (RPMI, 10% heat-inactivated FBS, 1% L-glutamine, 1% Pen-Strep) until the growth rate reached log phase. For protein expression analysis, DMSO (1:1000 final dilution) or TQS-168 in DMSO (1:1000 final dilution) at 20 μM was added to cell cultures. After 24 hours stimulation, supernatant was discarded and cell lysis buffer (Cell Signal) was added to adherent cells to extract protein. Total protein was quantified and normalized across all samples by BCA assays. Two replicates of untreated cultures and three replicates of TQS-168-treated cultures were investigated, with each replicate containing lysates from 5,000,000 BV2 myeloid cells. PGC1α expression was detected by Western Blot using an anti-PGC-1α antibody (SC13067, Santa Cruz Biotechnology, 1:500 dilution). Anti-[…] antibody (SC8432, Santa Cruz Biotechnology, 1:2000 dilution) was used to quantify beta-actin, a housekeeping gene whose expression level is not known to be affected by TQS-168. […] Total protein was quantified and normalized across all samples by BCA assays. PGC-1α was subsequently detected by Western Blot using an anti-PGC-1α antibody (SC13067, Santa Cruz Biotechnology, 1:500 dilution). β-actin was detected with an anti-β-actin antibody (SC8432, Santa Cruz Biotechnology, 1:2000 dilution). […]

older mice = details: oral 25 mg/kg; cited from earlier work
TNFα = assay: LPS-induced TNFα secretion from BV2 cells (CBA assay); format: cell-based, murine; details: for suppression of TNFα production vs control: 100 ng/mL LPS 24 hours
Procedure: Lipopolysaccharide (LPS) is a natural ligand of the TLR4/CD14 complex, which is highly expressed on myeloid cells
LPS was used to induce cytokine secretion from BV-2 cells. Cells were incubated with TQS-168 at various concentrations to assess whether TQS-168 could suppress the LPS-promoted release of various cytokines from in vitro cell cultures. Cytokine secretion was measured by cytometric bead array (CBA) fluorescence-activated cell sorting (FACS).
Briefly, a vial of BV2 frozen stock (1 million cells per ml in complete medium) was thawed into 10 mL of complete medium per vial for a total of 4 vials. The vials were then centrifuged at 1800 rpm for 3 minutes to wash away freezing media. The four vials were then pooled into 25 mL of complete medium. TQS-168 was prepared in DMSO.
Cells were incubated for 24 hours in the presence of medium (negative control), LPS (positive control), DMSO+LPS (positive control, controlling additionally for presence of DMSO in the TQS-168 stock solution), or LPS+TQS-168 at final concentrations of 1 μM, 5 μM, 10 μM, and 20 μM.
After the well plates were incubated overnight for 24 hours, they were centrifuged at 1800 rpm for 5 minutes. Next, 150 μl from each well was transferred to a new set of plates, of which 50 μl was used for CBA. The plates were then centrifuged with the cells, followed by addition of 100 μL of DAPI (50 ml of PBS+10 μL of DAPI stock at 1:5000 dilution). The plates were then incubated in the dark for 5 minutes, followed by addition of 100 μL of PBS and centrifuged at 1800 rpm for 5 minutes. Finally, the plates were resuspended in 200 μL of PBS and tested.
Multiplexed cytometric bead array (CBA) assay was performed according to standard techniques to detect presence in the cell culture medium of secreted murine TNFα, IL-6, IFNγ, IL-12, monocyte chemoattractant protein 1 (MCP-1), and IL-10.
A total of 4-11 replicates of BV2 cultures in different conditions were investigated. […]

[1] = background statement; cited from earlier work
clinical = details: male, human, in vivo, po; for half-life: T1/2
IL-6 = assay: LPS-stimulated IL-6 secretion from human PBMCs (ELISA); format: cell-based; details: LPS 1 ng/mL, 24 h
Procedure: The principal metabolites from liver metabolism of TQS-168 following oral administration have been described. See Sun et al., Rapid Commun. Mass Spectrom. 32:480-488 (2018), incorporated herein by reference. We synthesized the phase 1 metabolites from liver metabolism of TQS-168 illustrated in FIG. 20 and tested them for the ability to inhibit LPS-stimulated secretion of pro-inflammatory cytokines in vitro.
Briefly, 20,000 human PBMC were aliquoted into each well. LPS was added at 1 ng/mL and the cells incubated for 24 h in the presence of LPS and TQS-168 or one of its metabolites. Readouts were human IL-6 ELISA and human TNFα ELISA. For assay, supernatants were diluted in culture medium. The supernatant dilution for the IL-6 ELISA was 1:8, and the 1:2 for the human TNFα ELISA.

## CC(C)(C)c1ccc(-c2nc3ccccc3[nH]2)cc1 [TQS-168, 2-(4-tert-butylphenyl)-1H-benzimidazole]
PGC-1α
  induction of PGC-1α protein expression: induces PGC-1α protein expression; also recorded: induction of PGC-1α protein expression
Older mice
  behavioral dysfunction: alleviate behavioral dysfunction
  inflammatory cytokine production in microglia: inhibit inflammatory cytokine production in microglia
  metabolic dysfunction in microglia: suppress metabolic dysfunction in microglia
  systemic inflammation: suppress systemic inflammation
TNFα; 5 μM
  suppression of TNFα production vs control: can suppress TNFα production; also recorded: inhibition of TNFα production
TNFα; 20 μM
  suppression of TNFα production vs control: can suppress TNFα production; also recorded: inhibition of TNFα production
TNFα; 1-20 μM
  reduction of LPS-induced TNFα secretion, dose response: concentration-dependent; also recorded: dose-responsive inhibition
[1]
  solubility: highly insoluble

## CC(C)(C)c1ccc(-c2nc3cc(O)ccc3[nH]2)cc1 [TQS-621]
clinical; 60 mg, AUC(0-24)
  AUC(0-t): 383 ng·h/mL
clinical; 60 mg
  AUC(0-inf): 410 ng·h/mL
  Cmax: 65.3 ng/mL and 250 nM
  half-life: 293 min
  Tmax: 2.5 h
clinical; 60 mg, AUC(0-last)
  AUC(0-t): 401 ng·h/mL
clinical; 90 mg, AUC(0-24)
  AUC(0-t): 1170 ng·h/mL
clinical; 90 mg
  AUC(0-inf): 1200 ng·h/mL
  Cmax: 214 ng/mL and 800 nM
clinical; 180 mg
  half-life: 546 min
  Tmax: 1.5 h
clinical; 270 mg, AUC(0-24)
  AUC(0-t): 4250 ng·h/mL
clinical; 270 mg
  AUC(0-inf): 4950 ng·h/mL
  Cmax: 2330 nM
  half-life: 624 min
  Tmax: 2 h
clinical; 270 mg, AUC(0-last)
  AUC(0-t): 4760 ng·h/mL
clinical; 540 mg, AUC(0-24)
  AUC(0-t): 10800 ng·h/mL
clinical; 540 mg
  AUC(0-inf): 12700 ng·h/mL
  Cmax: 1110 ng/mL and 4.17 µM
  half-life: 678 min
  Tmax: 4 h
clinical; 540 mg, AUC(0-last)
  AUC(0-t): 12000 ng·h/mL
IL-6
  inhibition of LPS-stimulated IL-6 secretion: potently inhibits; also recorded: potent inhibitor
